Results as given in patent US20060154323A1, “Method for obtaining dynamic and structural data pertaining to proteins and protein/ligand complexes” (ProSpect Pharma, priority 2002, published 2006).

Columns and labels:
[1] = molecular target: T1, MUP (Mus musculus, UniProt P11588); test: Binding of small hydrophobic ligands to MUP (Kd)
T1 construct: made in house; host or cells: E. coli M15 cells with vector pqe30 MUP
T1 sequence (P11588 19-180): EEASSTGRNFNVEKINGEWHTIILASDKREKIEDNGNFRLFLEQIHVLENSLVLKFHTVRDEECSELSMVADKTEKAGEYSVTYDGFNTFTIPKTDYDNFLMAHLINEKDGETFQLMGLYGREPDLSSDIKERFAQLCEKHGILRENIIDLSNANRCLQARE

[2] = molecular target: T1, MUP; test: 13C-1H HSQC spectra of valine-enriched MUP complexes; details: 13C-1H HSQC of complexes with valine-enriched MUP
[3] = molecular target: T2, Major Urinary Protein (Mus musculus, UniProt P11588); test: S2axis order parameters of valine methyl groups from 600 MHz 13C R1/R2 relaxation of valine-enriched MUP and its complexes; details: for S^2axis: MUP-ligand complex, 600 MHz, 30° C., pH 7.0
T2 construct: made in house; host or cells: E. coli M15 cells with vector pqe30 MUP
T2 sequence (P11588 19-180): T1 sequence (P11588 19-180)
Method: Samples of [^13C^γ1,^γ2HD2]-U-^2H valine enriched MUP both alone and complexed with 2-methoxy-3-isopropylpyrazine and 2-methoxy-3-isobutylpyrazine were prepared from a single sample at pH 7.0 and a protein concentration of 1 mM. A further sample of methyl-^13C, ^2H enriched MUP was prepared at pH 7.0 and a protein concentration of 0.5 mM. Longitudinal (R1) and transverse (R2) ^13C relaxation rates were determined essentially as described by Ishima et al., J. Am. Chem. Soc. 121:11589-11590, 1999. All spectra were recorded at a proton frequency of 600 MHz and a probe temperature of 30° C. R1 rates were determined with relaxation delay times of 16, 64, 128, 240, 400, 720, 1120, 1600, 2240 and 2880 milliseconds. R2 rates were determined with relaxation delay times of 16, 32, 48, 64, 96, 160, 192, 240 and 288 milliseconds, and an effective field strength of 2 kHz. Relaxation data were fit to a single exponential decay function I=I0exp(−tR), where I0 is the initial resonance intensity, t is the relaxation delay time and R is the relaxation rate (R1 or R2). Relaxation data were fitted to the Lipari-Szabo model-free spectral density of the form: J(ω)=S^2τm/(1+ω^2τ^2m)+(1−S^2)τi/(1+ω^2τi^2), where τi^−1=τM^−1+τe^−1, τM is the overall molecular tumbling correlation time and τe is the effective internal correlation time. See Lipari and Szabo, J. Am. Chem. Soc. 104:4546-4559, 1982. This equation is valid for fast internal motions, τe<<τM, under which conditions the order parameter for methyl CH dipolar relaxation is given by S^2=Saxis^2[P2(cos θH]^2. Saxis^2 is the order parameter of the methyl rotation axis and θH is the angle made by the axis and the CH bond vector. A global rotational correlation time of […] was used for these calculations, according to the previously reported value. Zidek et al., Nature Str. Biol. 6:1118-1121, 1999. Although the valine residues were perdeuterated at non-methyl positions, the protein was otherwise protonated, and dipolar relaxation due to these “external” protons is not negligible for ^13C relaxation. Thus, by analogy with the work of Ishima et al. J. Am. Chem. Soc. 123:6164-6171, 2001, the contribution of these external protons to ^13C R2 values was estimated at 25% from the X-ray coordinates of MUP. Consequently, measured ^13C R^2 rates were multiplied by 0.75 to account for these external dipolar relaxation processes.

[4] = molecular target: T3, Mouse Urinary Protein (Mus musculus, UniProt P11588); test: 13C NMR relaxation (T1, T2) of valine 13CHD2-labeled MUP in absence and presence of ligand; details: for T1, Change / T2, Change: Protein vs Bound Protein; for T1, Bound Protein / T2, Bound Protein: 298 K;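 for T1, Bound Protein: unit milliseconds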;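 for T2, Bound Protein: unit milliseconds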
T3 construct: made in house; host or cells: E. coli M15 cells with vector pqe30 MUP
T3 sequence (P11588 19-180): T1 sequence (P11588 19-180)
Method: A 15 mg sample of L-valine-α-D-^12CD(^13CHD2)2 labeled MUP was dissolved in 650 μL phosphate buffered saline (10 mM potassium phosphate; 200 mM sodium chloride), to which was added 50 μL deuterium oxide. ^13C Relaxation rates (R2 and R1) of ^13CHD2 groups were determined using pulse sequences as described in Ishima et al., J. Am. Chem. Soc. 121:11589-11590 (1999). Spectral parameters were as follows: spectral width in the ^13C dimension, 900 Hz; spectral width in the ^1H dimension, 5200 Hz; number of real data points in the ^13C dimension, 128; number of real points in the ^1H dimension, 1408; number of transients per t1 increment, 8; probe temperature, 298 K. Prior to two-dimensional Fourier transformation, free induction decays were apodized with cosine-bell windowing functions according to known methods.
The NMR analysis was then repeated following addition of the small molecule ligand 1 μL of isobutyl pyrazine or 1 μL of isopropyl pyrazine to separate solutions of MUP. The data shown below in Tables I and II and in FIG. 8 were obtained, clearly showing the changes in T1 and T2 values obtained on addition of these small molecule ligands.

[5] = valine methyl 59.HG1 (first line)
[6] = valine methyl 59.HG1 (second line)

`COc1nccnc1CC(C)C` [2-methoxy-3-isobutylpyrazine] was tested, and the Kd [1] was 0.08 µM, the “shift perturbations of Val 82 γ1 and γ2 correlations” value [2] was “Significant shift perturbations” and the “changes in Saxis^2 of the six valine residues in MUP upon binding” value [3] was “only minor changes”. For the same compound, the “S^2axis” value ([3]; Val-12 C^γ1) was 0.86, the “S^2axis” value ([3]; Val-12 C^γ2) was 0.66 and the “S^2axis” value ([3]; Val-47 C^γ1) was 0.86. For the same compound, the “S^2axis” value ([3]; Val-47 C^γ2) was 0.88, the “S^2axis” value ([3]; Val-53 C^γ1) was 0.78 and the “S^2axis” value ([3]; Val-53 C^γ2) was 0.86. The “S^2axis” value ([3]; Val-59 C^γ1) was 0.63, the “S^2axis” value ([3]; Val-59 C^γ2) was 0.90 and the “S^2axis” value ([3]; Val-70 C^γ1) was 0.81. For the same compound, the “S^2axis” value ([3]; Val-70 C^γ2) was “[1.03]”, the “S^2axis” value ([3]; Val-82 C^γ1) was 0.53 and the “S^2axis” value ([3]; Val-82 C^γ2) was 0.53. The “contribution of valine side-chains to the entropy of binding” value ([3]; from computations of Saxis^2 values, free protein and complexes) was “do not contribute significantly”, the “T1, Change” value ([4]; 12.HG1) was 35.219 milliseconds and the “T2, Change” value ([4]; 12.HG1) was −13.500 milliseconds. For the same compound, the “T2, Change” value ([4]; 12.HG2) was −16.796 milliseconds, the “T1, Change” value ([4]; 47.HG1) was 9.550 milliseconds and the “T2, Change” value ([4]; 47.HG1) was −16.055 milliseconds. For the same compound, the “T1, Change” value ([4]; 47.HG2) was −82.069 milliseconds, the “T2, Change” value ([4]; 47.HG2) was −12.196 milliseconds and the “T1, Change” value ([4]; 53.HG1) was −98.976 milliseconds. For the same compound, the “T2, Change” value ([4]; 53.HG1) was −10.901 milliseconds, the “T1, Change” value ([4]; 53.HG2) was 17.840 milliseconds and the “T2, Change” value ([4]; 53.HG2) was −13.096 milliseconds. For the same compound, the “T1, Change” value ([4]; 59.HG1 (first line)) was −84.312 milliseconds, the “T2, Change” value ([4]; 59.HG1 (first line)) was −22.344 milliseconds and the “T1, Change” value ([4]; 59.HG1 (second line)) was 20.312 milliseconds. The “T2, Change” value ([4]; 59.HG1 (second line)) was −3.040 milliseconds, the “T1, Change” value ([4]; 70.HG1) was 379.619 milliseconds and the “T2, Change” value ([4]; 70.HG1) was −65.766 milliseconds. The “T1, Change” value ([4]; 70.HG2) was −324.602 milliseconds, the “T2, Change” value ([4]; 70.HG2) was 33.869 milliseconds and the “T1, Change” value ([4]; 82.HG1) was 1.260 milliseconds. For the same compound, the “T2, Change” value ([4]; 82.HG1) was 7.645 milliseconds, the “T1, Change” value ([4]; 82.HG2) was −33.349 milliseconds and the “T2, Change” value ([4]; 82.HG2) was 22.399 milliseconds. For the same compound, the “contribution of valine side-chains to the entropy of binding” value ([4]; from relaxation data in the presence of ligand) was “do not contribute significantly”, the “T1, Bound Protein” value ([4]; valine methyl 12.HG1) was 1760.141 milliseconds and the “T2, Bound Protein” value ([4]; valine methyl 12.HG1) was 166.608 milliseconds. For the same compound, the “T2, Bound Protein” value ([4]; valine methyl 12.HG2) was 200.110 milliseconds, the “T1, Bound Protein” value ([4]; valine methyl 47.HG1) was 1619.169 milliseconds and the “T2, Bound Protein” value ([4]; valine methyl 47.HG1) was 171.287 milliseconds. The “T1, Bound Protein” value ([4]; valine methyl 47.HG2) was 1072.690 milliseconds, the “T2, Bound Protein” value ([4]; valine methyl 47.HG2) was 162.950 milliseconds and the “T1, Bound Protein” value ([4]; valine methyl 53.HG1) was 2332.247 milliseconds. The “T2, Bound Protein” value ([4]; valine methyl 53.HG1) was 174.600 milliseconds, the “T1, Bound Protein” value ([4]; valine methyl 53.HG2) was 1382.566 milliseconds and the “T2, Bound Protein” value ([4]; valine methyl 53.HG2) was 163.379 milliseconds. For the same compound, the “T1, Bound Protein” value [4, 5] was 1367.075 milliseconds, the “T2, Bound Protein” value [4, 5] was 200.992 milliseconds and the “T1, Bound Protein” value [4, 6] was 1502.825 milliseconds. For the same compound, the “T2, Bound Protein” value [4, 6] was 150.756 milliseconds, the “T1, Bound Protein” value ([4]; valine methyl 70.HG1) was 1701.953 milliseconds and the “T2, Bound Protein” value ([4]; valine methyl 70.HG1) was 186.968 milliseconds. The “T1, Bound Protein” value ([4]; valine methyl 70.HG2) was 1488.130 milliseconds, the “T2, Bound Protein” value ([4]; valine methyl 70.HG2) was 128.164 milliseconds and the “T1, Bound Protein” value ([4]; valine methyl 82.HG1) was 913.641 milliseconds. The “T2, Bound Protein” value ([4]; valine methyl 82.HG1) was 216.738 milliseconds, the “T1, Bound Protein” value ([4]; valine methyl 82.HG2) was 703.150 milliseconds and the “T2, Bound Protein” value ([4]; valine methyl 82.HG2) was 201.054 milliseconds.
